Experimental data as given in patent publication US20210078917A1, “FUNGICIDAL FERTILIZER COMPOSITION COMPRISING POTASSIUM PHOSPHITE AND GAMMA-POLY-GLUTAMIC ACID” (JIANGSU HUIFENG BIO AGRICULTURE CO., LTD., priority 2018, published 2021).

Legend:
[1] = tested on: Disease (rot); assay: Disease control test of tomato, rot; assay type: in vivo; conditions: 60 g active ingredient per mu
Experimental: This fertilizer was applied on the basis of conventional fertilization in each treatment area. Fertilization method: The fertilizer was applied by spraying during the seedling stage of tomato. The yield, quality and control effect on disease on tomato were determined.

[2] = tested on: pepper; assay: Yield increase and quality test of pepper; assay type: in vivo; conditions: 40 g active ingredient per mu
Experimental: This fertilizer was applied on the basis of conventional fertilization in each treatment area. Fertilization method: The fertilizer was applied by spraying during the seedling stage of pepper. The yield, quality and control effect on disease on pepper were determined.

[3] = tested on: potatoes; assay: Yield increase test of potatoes (field); assay type: in vivo, potato
Experimental: (1) Yield increase and disease control test of potatoes with fungicidal fertilizer composition of the present invention. This test was conducted in 2017 in Anding District, Dingxi City, Gansu Province. This area is a typical semi-arid rain-fed agricultural area. The soil type is loessial soil, with deep soil layers and uniform soil fertility. The previous crop is rape. The fertilizer of the present invention was totally applied as a base fertilizer at a time. […] Ridging after flat planting in wide and narrow rows was adopted. The wide row spacing was 60 cm, the narrow row spacing was 30 cm, the plant spacing was 30 cm, the sowing depth was 15 cm, and the plant density was 58,000 plants·hm^−2. Other field management was the same as that in large area of field. The number of large- and medium-sized potatoes ([…]) per plant was randomly determined, and the relative increase rate of large- and medium-sized potatoes was determined. The yield per mu and the relative increase rate of yield were determined. The crude starch content and increase rate of crude starch content were determined. The control effect on root rot of potatoes was also determined.

[4] = amount 50 g active ingredient/mu
[5] = amount 100 g active ingredient/mu
[6] = amount 400 g active ingredient/mu

γ-poly-glutamic acid
Disease (rot): Control effect ([1]; 12 days after application): 21.35% | Disease (rot): Control effect ([1]; 45 days after application): 7.26% | Quality: Vitamin C [2]: 26.8 mg/100 g | Yield: Total yield [2]: 3382 kg/mu | Yield: Weight of single fruit [2]: 49.2 g | Crude starch content [3, 4]: 16.1% | Fresh weight of large- and medium-sized potatoes [3, 4]: 481.3 g/plant | Increase rate of crude starch content [3, 4]: 1.9% | Increase rate of large- and medium-sized potatoes [3, 4]: 6.5% | Increase rate of yield [3, 4]: 4.4% | Yield [3, 4]: 1343 kg/mu | Crude starch content [3, 5]: 16.4% | Fresh weight of large- and medium-sized potatoes [3, 5]: 492.6 g/plant | Increase rate of crude starch content [3, 5]: 3.8% | Increase rate of large- and medium-sized potatoes [3, 5]: 9.0% | Increase rate of yield [3, 5]: 7.5% | Yield [3, 5]: 1383 kg/mu | Crude starch content [3, 6]: 17.1% | Fresh weight of large- and medium-sized potatoes [3, 6]: 499.3 g/plant | Increase rate of crude starch content [3, 6]: 8.2% | Increase rate of large- and medium-sized potatoes [3, 6]: 10.5% | Increase rate of yield [3, 6]: 10.6% | Yield [3, 6]: 1422 kg/mu
